Data set [1] can be described thus: Biliary excretion of free and total GCM after i.v. administration. Format: in vivo, rats. The settings on record: free GCM, i.v. 10 mg/kg; for dose excreted: Sprague-Dawley, rat, bile, iv, 10 mg/kg, read-out: Bile recovery. Here is the method: Rats (n = 6) underwent bile fistula cannulation under anesthesia prior to bile sample collection. Bile samples from rats following i. v. GCM administration (10 mg/kg) were collected via cannula every 2 h over an 8 h collection period. Samples were collected from the catheter and delivered into acidified (0.1% HCl) centrifuge tubes. The rats were placed on thermostatic plates and kept under mild anesthesia throughout the experiment. The bile samples were diluted with saline and stored at −40°C until assayed.
(§1) Two aliquots of 50 μL prepared bile or urine samples were spiked with or without β-glucuronidase to determine the total or free GCM concentrations, as described above. The mixtures were incubated at 37°C for 40 min, and the mixtures were then spiked with 120 μL of ice-cold methanol containing IS to stop incubation. A 10 μL supernatant of each sample was used for the analysis.
(§2) An LC-MS/MS system comprising an Agilent 1260 HPLC system (Palo Alto, CA, United States) and an Applied Biosystems 4500 Q-Trap mass spectrometer equipped with an electrospray ionization source (Foster City, CA, United States) was used. Chromatographic separation was performed on a C18 column (100 × 4.6 mm, 3 μm, Thermo Fisher Scientific, Waltham, MA, United States) maintained at 30°C. The mobile phases comprised 0.1% (v/v) formic acid in water (A) and acetonitrile (B) at a flow rate of 0.4 mL/min. […] The total run time was 4 min. For mass spectrometry detection, the positive ion mode was used and the ion spray voltage was set at 5,500 V. The operating conditions were as follows: ion source temperature, 450°C; curtain gas, 20 psi; collision gas, medium. Ion source gases 1 and 2 were both at 60 psi. The collision energies were 37 and 42 V, and the declustering potentials for GCM and IS were 110 and 136 V, respectively. Quantification was performed by multiple reaction monitoring (MRM) of molecular ions and product ions at m/z 369.3 and 284.7 for GCM and 337.0 and 280.9 for IS (Supplementary Figure S1). Analyst® software (Version 1.6.3) was used for data acquisition and peak integration.

The subject of another data set is CYP2C8. Also noted: method as in Li et al., 2017; Kuang et al., 2021. The following applies: human liver microsomes; ref Li et al., 2017; Kuang et al., 2021; cited from earlier work.
Data set [2] can be described thus: In vitro stability of GCM in pH buffers and gastrointestinal content solutions. The data set is classed as in vitro ADME, rats. The settings on record: 4 h at 37°C, 0.8 μg/mL. Here is the method:
The gastrointestinal tract solutions were collected as described previously ([Kong et al., 2013]). Briefly, rats were fasted overnight and sacrificed; the entire stomach, small intestine, and colon of each rat were removed, and their contents were rapidly collected on ice. Each of the contents was suspended in buffer solutions at pH 1.2, 6.8, and 7.4. Following mixing and centrifugation, the protein content of the gastrointestinal tract solutions was assayed using the BCA protein assay kit from Solarbio (Beijing, China) and then adjusted to 12 mg/mL for further study.
The stability of GCM in the gastrointestinal tract, including chemical stability and enzymatic stability, was assessed using an in vitro method as described previously ([Kong et al., 2013]). Briefly, GCM was spiked into different pH (1.2, 6.8, and 7.4) buffers and gastrointestinal content solutions containing the GCM at a final concentration of 0.8 μg/mL. The solutions were then mixed and incubated at 37°C. Aliquots of 200 μL samples were collected at 0.5, 1, 2, and 4 h, and 200 μL ice-cold methanol containing 200 ng/mL IS was added to stop the incubation. After centrifugation, 10 μL of the supernatant was used for analysis. Each experiment was performed in triplicate.

For another data set, the system named is CYP2C9. The following applies: human liver microsomes, cited from earlier work. Background: Liver microsomes are vesicles of endoplasmic reticulum, rich in cytochrome P450 enzymes.
Data set [3] in a line: Plasma pharmacokinetics of free and total GCM after i.v. or oral administration (LC-MS/MS, with or without β-glucuronidase hydrolysis). The data set is classed as in vivo, Sprague-Dawley rats.
Excerpt: Male Sprague-Dawley rats (200 ± 20 g) were obtained from SJA Laboratory Animal Co. Ltd. (Hunan, China). All animals were kept under standard conditions of light, humidity, and temperature, and were allowed free access to a standard diet and water. All animal experiments were approved by the Animal Ethics Committee of Bijie City First People’s Hospital (BY[2019]-02-198). On the day before GCM administration, rats were subjected to a minor surgical procedure. Briefly, a polyurethane catheter (0.59 mm ID, 0.94 mm OD; Skillsmodel Limited, Beijing, China) was cannulated into the right jugular vein while under anesthesia induced using an intraperitoneal dose of chloral hydrate at 350 mg/kg. After surgery, the rats were individually placed in metabolism cages to allow recovery for at least 24 h. The rats were fasted overnight with free access to water before GCM administration.
All GCM dosing drugs were freshly prepared at a concentration of 10 mg/mL prior to the experiments. Briefly, GCM was dissolved in normal saline containing 5% (v/v) Solutol HS 15. The animals were randomly divided into three groups. The i. v. administration group was treated intravenously with […] by quick injection through the cannulated catheter, and approximately 0.2 mL saline with 20 units of heparin was injected to flush the catheter and prevent blood coagulation. The oral administration group was treated with […] in a single gastric gavage dose, and the intraperitoneal injection group received 20 mg/kg GCM through intraperitoneal injection.
Approximately 0.3 mL blood samples were collected via the cannula and placed into heparinized micro centrifuge (Eppendorf) tubes at multiple time-points (0.08, 0.25, 0.50, 1, 2, 3, 4, 5, 6, 7, 8, 10, 12, and 24 h) after GCM administration. The samples were centrifuged at 3000 × g for 5 min at 4°C for plasma separation; a 0.1 mL aliquot of each separated plasma sample was harvested and stored at −40°C until assessed.
Free (parent drug) and/or total (including parent and glucuronidated metabolites) GCM concentrations in rat plasma, tissues, urine, and bile were quantitatively assayed using LC-MS/MS before and after hydrolytic treatment with β-glucuronidase.
Aliquots (100 μL) of plasma samples were divided into two equal fractions for determining the free and total GCM concentrations, as previously described ([Chang et al., 2012]). Briefly, two aliquots of 50 μL plasma were incubated at 37°C with or without β-glucuronidase at a concentration of 1,200 units for total and free GCM, respectively. After 40 min of incubation, 10 μL of IS (1,000 ng/mL) was added to the mixtures followed by extraction with ethyl acetate. After centrifugation, the clear ethyl acetate layer was transferred and concentrated using a freeze-dry concentration method at 4°C. Subsequently, the remaining material was reconstituted in 200 μL of 90% (v/v) methanol. A 10 μL aliquot of the supernatant was injected into the LC-MS/MS system for analysis.
as §2, with “Quantification was performed by multiple reaction monitoring (MRM) of molecular ions and product ions at m/z 369.3 and 284.7 for GCM and 337.0 and 280.9 for IS (Supplementary Figure S1). Analyst® software (Version 1.6.3) was used for data acquisition and peak integration.” left out

A further data set deals with CYP2D6. The arrangement: method as in Qiao et al., 2014a. The settings on record: ref Qiao et al., 2014a; cited from earlier work.
On the set-up of data set [4]: method as in Li et al., 2017; Kuang et al., 2021. The settings on record: human liver microsomes; ref Li et al., 2017; Kuang et al., 2021; cited from earlier work.
In the next data set the test system is CYP1A2. Also noted: method as in Li et al., 2017; Kuang et al., 2021. The following applies: human liver microsomes; ref Li et al., 2017; Kuang et al., 2021; cited from earlier work.
Data set [5] can be described thus: Tissue distribution of GCM after intraperitoneal administration. Format: in vivo. The following applies: intraperitoneal 20 mg/kg, rats. Here is the method: Twenty-five rats were randomly divided into five groups and administered 20 mg/kg GCM intraperitoneally. Samples of various tissues (heart, liver, spleen, lung, kidney, and brain) of a certain weight were collected from the rats at 0.5, 1, 2, 4, and 6 h following GCM administration. All tissues were then rinsed with normal saline to clean the blood, blotted with filter paper, and stored at −40°C until use. Blood samples were collected via the carotid artery at the specified time points, and plasma samples were harvested as described above.
Tissue samples were accurately weighed and homogenized in ice-cold saline (1:4, w/v) using a glass tissue homogenizer. Homogenized organs were centrifuged at 12,000 × g for 10 min to obtain clear supernatants; the supernatant was then transferred to a clean test tube kept at −40°C until assayed.
as §2

For the next data set, the system named is CYP2C19. The arrangement: method as in Li et al., 2017; Kuang et al., 2021. The following applies: human liver microsomes; ref Li et al., 2017; Kuang et al., 2021; cited from earlier work.
The nature of data set [6]: Urinary excretion of free and total GCM after i.v. administration. Format: in vivo, rats. The following applies: Sprague-Dawley, rat, urine, iv, 10 mg/kg, free GCM, i.v. 10 mg/kg. Here is the method:
Six rats were individually placed in metabolic cages and administered 10 mg/kg GCM by i. v. injection. Urine samples were collected over 24 h after administration in a urine reservoir containing 2 mL 0.1% HCl to avoid GCM degradation. Each urine reservoir was rinsed with 5 mL normal saline after collection. Every urine sample was diluted to 20 mL with normal saline and then stored at −40°C until assayed.
as §1, §2

The subject of another data set is CYP2B6. Also noted: method as in Li et al., 2017; Kuang et al., 2021. The following applies: human liver microsomes; ref Li et al., 2017; Kuang et al., 2021; cited from earlier work.
On the set-up of data set [7]: method as in Wang et al., 2015. The following applies: ref Wang et al., 2015; cited from earlier work.
In a further data set the test system is CYP1A1. Also noted: method as in Kim et al., 2016. The settings on record: human liver microsomes; ref Kim et al., 2016; cited from earlier work.
The mark [8] stands for this setting: male, Sprague-Dawley, iv, free GCM, i.v. 10 mg/kg, rat plasma.

Where two headings read alike, the source gives them in different places.

The term CL/F denotes clearance divided by bioavailability, as obtained after extravascular dosing. With `COc1c(CC=C(C)C)c(O)cc2oc(=O)c(-c3ccc(O)cc3O)cc12` [GCM, Glycycoumarin], in data set [1] (0–2 h), the dose excreted was 0.2 ± 0.12%. Also, the dose excreted in data set [1] (2–4 h) came to 0.08 ± 0.06%. Besides, the dose excreted in data set [1] (4–6 h) is 0.05 ± 0.04%. The “Parent form excreted from bile over 0–8 h” value in data set [1] (0–8 h) was < 1 % of the delivered dose. Moreover, in the data set with CYP2C8, the CYP2C8 inhibition result is on record as “strongly inhibit”. In data set [2], the “Stability in colon content solutions” value was “unstable”, the “Stability in small intestine content solutions” value was “unstable” and the “Stability in stomach content solutions” value was “relatively stable”. Also, the “Stability in pH buffer solutions” value in [2] (pH 1.2, 6.8 and 7.4) is “relatively stable”. Besides, the CYP2C9 inhibition result in the data set on CYP2C9 (ref Li et al., 2017, Kuang et al., 2021) is reported as “strongly inhibit”. The “Parent GCM in plasma collected after 6 h” value in data set [3] (free GCM, i.v. 10 mg/kg) is on record as “almost undetectable”. In data set [3] (free GCM, i.v. 10 mg/kg, rats), this compound gave a CL/F of 149 ± 33.3 mL/min/kg. The “Vd, λz/F” value in [3] (free GCM, i.v. 10 mg/kg, rats, in L/kg) was found to be 9.25 ± 3.13. In addition, in [3] (free GCM, oral 20 mg/kg), the “Free GCM in plasma after 2 h” value is “almost undetectable”. In addition, the “AUC0-∞ of conjugated (glucuronidated) GCM relative to free GCM” value in data set [3] (i.v. 10 mg/kg, rat plasma) was “approximately four-times higher”. For the same compound, in data set [3] (setting [8]), the AUC(0-inf) came out at 1170 ± 283 ng·h/mL, the AUC(0-t) is 1160 ± 284 ng·h/mL and the C0 is 5690 ± 1360 ng/mL. In addition, the half-life in data set [3] (male, Sprague-Dawley, iv, free GCM, i.v. 10 mg/kg, rat plasma, read-out: t1/2, λz (converted)) is 42.6 ± 6.6 min. In addition, the CYP2D6 activity inhibition result with CYP2D6 is on record as “significantly inhibits”. Further, the UGT1A19 inhibition entry in data set [4] is “strongly inhibit”. For the same compound, in the data set on CYP1A2, the CYP1A2 inhibition entry was “strongly inhibit”. Further, in data set [5], the Blood-brain barrier crossing entry is on record as “cannot cross the blood-brain barrier”; the “GCM in brain samples” value is “not detected”; the “Tissue concentration rank order” value was “liver, followed by that in the spleen, lung, heart, and kidney”. The “GCM levels in most tissues by 6 h after dosing” value in [5] (6 h) is recorded as “undetectable levels”. Also, the CYP2C19 inhibition entry in the data set on CYP2C19 is given as “strongly inhibit”. Further, the dose excreted in [6] (0–12 h, read-out: Urine recovery) was found to be 0.28 ± 0.25%. The dose excreted in data set [6] (0–24 h, read-out: Urinary recovery over 24 h) is 0.39%. Also, the dose excreted in data set [6] (12–24 h, read-out: Urine recovery) is 0.11 ± 0.1%. For the same compound, the CYP2B6 inhibition result in the data set with CYP2B6 is given as “strongly inhibit”.
Consider `COc1c(CC=C(C)C)c(O)cc2oc(=O)c3c4ccc(O)cc4oc3c12` [Glycyrol], for which, in data set [7], the “Absorption into the blood after oral administration” value is given as “not absorbed into the blood”. The CYP2C9 inhibition result in the data set with CYP2C9 (ref Kim et al., 2016) is on record as “competitive inhibitory effects”. Further, the CYP1A1 inhibition result in the data set on CYP1A1 is given as “competitive inhibitory effects”.
